Earlier results, collected in patent US20120184751A1, “POLYMORPHIC FORM OF OLMESARTAN MEDOXOMIL” (RANBAXY LABORATORIES LIMITED, priority 2009, published 2012).

Conditions: 75% relative humidity at 40° C. for one month

In the case of `CCCc1nc(C(C)(C)O)c(C(=O)OCc2oc(=O)oc2C)n1Cc1ccc(-c2ccccc2-c2nnn[nH]2)cc1` [amorphous olmesartan medoxomil, 2,3-dihydroxy-2-butenyl-4-(1-hydroxy-1-methylethyl)-2-propyl-1-[p-(o-1H-tetrazol-5-ylphenyl)benzyl]imidazole-5-carboxylate, cyclic 2,3-carbonate], the “solid-state stability / form conversion on storage” value is given as “converts into hydrated olmesartan medoxomil having crystalline appearance”.
